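The concentration for 50% growth inhibition is given as GI50. At the TGI there is no net growth.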
Assays:
Assay in all cases: growth of human tumour cells (NCI), 384-well format
[1] = tested on: HCT-15 colon
[2] = tested on: SNB-19 CNS
[3] = tested on: OVCAR-4 ovarian
[4] = tested on: SF-268 CNS
[5] = tested on: NCI-H226 lung
[6] = tested on: SF-295 CNS
[7] = tested on: PC-3 prostate
[8] = tested on: MDA-MB-435 melanoma
[9] = tested on: TK-10 renal
[10] = tested on: NCI-H322M lung
[11] = tested on: A498 renal
[12] = tested on: U251 glioblastoma
[13] = tested on: HT29 colon
[14] = tested on: OVCAR-8 ovarian
[15] = tested on: OVCAR-3 ovarian
[16] = tested on: UO-31 renal
[17] = tested on: COLO 205 colon
[18] = tested on: OVCAR-5 ovarian
[19] = tested on: SF-539 CNS
[20] = tested on: MOLT-4 leukemia
[21] = tested on: SK-MEL-5 melanoma
[22] = tested on: MCF7 breast
[23] = tested on: IGROV1 ovarian
[24] = tested on: MDA-MB-231 breast
[25] = tested on: MALME-3M melanoma
[26] = tested on: SN12C renal
[27] = tested on: HCT-116 colon
[28] = tested on: RXF 393 renal
[29] = tested on: UACC-257 melanoma
[30] = tested on: HOP-62 NSCLC
[31] = tested on: NCI-H522 lung
[32] = tested on: HOP-92 NSCLC
[33] = tested on: CAKI-1 renal
[34] = tested on: T-47D breast
[35] = tested on: SK-MEL-2 melanoma
[36] = tested on: K-562 leukemia
[37] = tested on: DU-145 prostate
[38] = tested on: SK-MEL-28 melanoma
[39] = tested on: KM12 colon
[40] = tested on: ACHN renal
[41] = tested on: 786-0 renal
[42] = tested on: BT-549 breast
[43] = tested on: NCI-H23 lung
[44] = tested on: SW-620 colon
[45] = tested on: SR leukemia
[46] = tested on: SK-OV-3 ovarian
[47] = tested on: HL-60(TB) leukemia
[48] = tested on: A549 NSCLC
[49] = tested on: UACC-62 melanoma
[50] = tested on: MDA-MB-468 breast
[51] = tested on: EKVX NSCLC
[52] = tested on: M14 melanoma
[53] = tested on: HS 578T breast
[54] = tested on: NCI-H460 NSCLC
[55] = tested on: SNB-75 CNS

With `N#Cc1ncc(N2C(=O)C3(CCC3)N(c3ccc(OC4CCNCC4)nc3)C2=S)cc1C(F)(F)F` the GI50 [1] was 5.19 µM, the TGI [1] was 16.6 µM and the GI50 [2] was 19.1 µM. For the same molecule, the TGI [2] was 35.3 µM, the GI50 [3] was 13.6 µM and the TGI [3] was 26.5 µM. For the same molecule, the GI50 [4] was 13.4 µM, the TGI [4] was 26.3 µM and the GI50 [5] was 8.62 µM. The TGI [5] was 20.7 µM, the GI50 [6] was 18.6 µM and the TGI [6] was 32.6 µM. The GI50 [7] was 14.4 µM, the TGI [7] was 27.5 µM and the GI50 [8] was 13.4 µM. For the same molecule, the TGI [8] was 26.3 µM, the GI50 [9] was 7.64 µM and the TGI [9] was 20.1 µM. It also gave a GI50 [10] of 17.9 µM, a TGI [10] of 32.5 µM and a GI50 [11] of 10.8 µM. For the same molecule, the TGI [11] was 22.7 µM, the GI50 [12] was 17.2 µM and the TGI [12] was 31 µM. For the same molecule, the GI50 [13] was 2.88 µM, the TGI [13] was 8.52 µM and the GI50 [14] was 14.5 µM. The TGI [14] was 27.7 µM, the GI50 [15] was 14 µM and the TGI [15] was 27.1 µM. It also gave a GI50 [16] of 14.7 µM, a TGI [16] of 27.9 µM and a GI50 [17] of 15.1 µM. The TGI [17] was 28.4 µM, the GI50 [18] was 13.8 µM and the TGI [18] was 27 µM. The GI50 [19] was 12.4 µM, the TGI [19] was 24.9 µM and the GI50 [20] was 10.1 µM. It also gave a TGI [20] of 21.7 µM, a GI50 [21] of 11.8 µM and a TGI [21] of 24.1 µM. The GI50 [22] was 4.76 µM, the TGI [22] was 16.6 µM and the GI50 [23] was 14.4 µM. The TGI [23] was 27.7 µM, the GI50 [24] was 16.1 µM and the TGI [24] was 29.6 µM. For the same molecule, the GI50 [25] was 2.68 µM, the TGI [25] was 6.23 µM and the GI50 [26] was 15.5 µM. It also gave a TGI [26] of 28.9 µM, a GI50 [27] of 8.22 µM and a TGI [27] of 20.7 µM. The GI50 [28] was 2.63 µM, the TGI [28] was 7.32 µM and the GI50 [29] was 1.99 µM. For the same molecule, the TGI [29] was 3.79 µM, the GI50 [30] was 20.9 µM and the TGI [30] was 35.3 µM. For the same molecule, the GI50 [31] was 17.5 µM, the TGI [31] was 31.3 µM and the GI50 [32] was 12.7 µM. The TGI [32] was 25.4 µM, the GI50 [33] was 5.96 µM and the TGI [33] was 18.3 µM. The GI50 [34] was 8.96 µM, the TGI [34] was 21.1 µM and the GI50 [35] was 5.98 µM. For the same molecule, the TGI [35] was 17.9 µM, the GI50 [36] was 4.27 µM and the TGI [36] was 16.1 µM. It also gave a GI50 [37] of 14.5 µM, a TGI [37] of 27.9 µM and a GI50 [38] of 2.32 µM. The TGI [38] was 5.21 µM, the GI50 [39] was 17.1 µM and the TGI [39] was 30.9 µM. It also gave a GI50 [40] of 15.3 µM, a TGI [40] of 28.7 µM and a GI50 [41] of 12 µM. For the same molecule, the TGI [41] was 24.4 µM, the GI50 [42] was 11.1 µM and the TGI [42] was 23.1 µM. It also gave a GI50 [43] of 11 µM, a TGI [43] of 23 µM and a GI50 [44] of 14.5 µM. It also gave a TGI [44] of 27.8 µM, a GI50 [45] of 1.9 µM and a TGI [45] of 3.91 µM. It also gave a GI50 [46] of 18.1 µM, a TGI [46] of 32.2 µM and a GI50 [47] of 3.75 µM. It also gave a TGI [47] of 15.8 µM, a GI50 [48] of 16.7 µM and a TGI [48] of 30.5 µM. The GI50 [49] was 2.03 µM, the TGI [49] was 3.93 µM and the GI50 [50] was 10.6 µM. For the same molecule, the TGI [50] was 22.4 µM, the GI50 [51] was 10.2 µM and the TGI [51] was 22 µM. For the same molecule, the GI50 [52] was 3 µM, the TGI [52] was 8.44 µM and the GI50 [53] was 11.5 µM. It also gave a TGI [53] of 23.6 µM, a GI50 [54] of 11.2 µM and a TGI [54] of 23.4 µM. The GI50 [55] was 14.5 µM and the TGI [55] was 27.7 µM.

Reference: PubChem BioAssay (NCI)
